Source: patent US8710058B2, “Polymorphic forms of 3-(1-{3-[5-(1-methyl-piperidin-4-ylmethoxy)-pyrimidin-2-yl]-benzyl}-6-oxo-1,6-dihydro-pyridazin-3-yl)-benzonitrile hydrochloride salt and processes of manufacturing thereof” (MERCK PATENT GmbH, priority 2009, dated 2014)
“Also recorded” adds a separate entry of the source. Where two headings read alike, the source gives them in different places.

What was measured:
[1] = Water Vapor Sorption isotherm (25° C., SMS DVS); format: physicochemical; conditions: for Hygroscopicity classification acc. to Ph. Eur. criteria: up to 98% RH
Text: The crystalline modifications of the present invention can be characterized according to standard methods which can be found e.g. in Rolf Hilfiker, ‘Polymorphism in the Pharmaceutical Industry’, Wiley-VCH, Weinheim 2006, and references therein, e.g. X-Ray diffraction (XRD; chapter 6), IR and Raman spectroscopy (chapter 5), Differential Scanning calorimetry (DSC) and Thermogravimetric Analysis (TGA) (chapter 3), Water Vapour Sorption Studies (chapter 9), or which can be found e.g. in H. G. Brittain (editor), Polymorphism in Pharmaceutical Solids, Vol. 95, Marcel Dekker Inc., New York 1999 (chapter 6: all there mentioned techniques).
FIG. 6 depicts the Water Vapour Sorption Isotherm (25° C.) (SMS DVS 1) of crystalline modification A1 of 3-(1-{3-[5-(1-methyl-piperidin-4-ylmethoxy)-pyrimidin-2-yl]-benzyl}-6-oxo-1,6-dihydro-pyridazin-3-yl)-benzonitrile hydrochloride anhydrate.
FIG. 12 depicts the Water Vapour Sorption Isotherm (25° C.) (SMS DVS Intrinsic) of crystalline modification H1 of 3-(1-{3-[5-(1-methyl-piperidin-4-ylmethoxy)-pyrimidin-2-yl]-benzyl}-6-oxo-1,6-dihydro-pyridazin-3-yl)-benzonitrile hydrochloride hydrate.
FIG. 18 depicts the Water Vapour Sorption Isotherm (25° C.) (SMS DVS Advantage) of crystalline modification NF3 of 3-(1-{3-[5-(1-methyl-piperidin-4-ylmethoxy)-pyrimidin-2-yl]-benzyl}-6-oxo-1,6-dihydro-pyridazin-3-yl)-benzonitrile hydrochloride hydrate.
FIG. 25 depicts the Water Vapour Sorption Isotherm (25° C.) (SMS DVS Intrinsic) of crystalline modification H2 of 3-(1-{3-[5-(1-methyl-piperidin-4-ylmethoxy)-pyrimidin-2-yl]-benzyl}-6-oxo-1,6-dihydro-pyridazin-3-yl)-benzonitrile hydrochloride monohydrate.
FIG. 33 depicts the Water Vapour Sorption Isotherm (25° C.) (SMS DVS Intrinsic) of crystalline modification NF6 of 3-(1-{3-[5-(1-methyl-piperidin-4-ylmethoxy)-pyrimidin-2-yl]-benzyl}-6-oxo-1,6-dihydro-pyridazin-3-yl)-benzonitrile hydrochloride anhydrate.
FIG. 38 depicts the Water Vapour Sorption Isotherm (25° C.) (SMS DVS Intrinsic) of crystalline modification NF2 of 3-(1-{3-[5-(1-methyl-piperidin-4-ylmethoxy)-pyrimidin-2-yl]-benzyl}-6-oxo-1,6-dihydro-pyridazin-3-yl)-benzonitrile hydrochloride hydrate.

[2] = Kinetic solubility (after 60 minutes) in 0.1 N HCl; conditions: 0.1 N HCl (pH 1.0); for Kinetic Solubility (after 60 minutes): room temperature (approx. 20-25° C.)
[3] = Thermodynamic solubility in 0.1 N HCl at 37° C.; conditions: 0.1 N HCl (pH 1.0); for Thermodynamic Solubility: 37° C.
[4] = Competitive binary slurry conversion experiments (thermodynamic stability of hydrate forms); conditions: different solvents at 25° C. and 50° C.
[5] = Solubility in Simulated Gastric Fluid (acc. to USP); conditions: 20 °C, thermodynamic from solid
[6] = pH 1

CN1CCC(COc2cnc(-c3cccc(Cn4nc(-c5cccc(C#N)c5)ccc4=O)c3)nc2)CC1.Cl [crystalline modification A1, 3-(1-{3-[5-(1-methyl-piperidin-4-ylmethoxy)-pyrimidin-2-yl]-benzyl}-6-oxo-1,6-dihydro-pyridazin-3-yl)-benzonitrile hydrochloride anhydrate]
Hygroscopic behavior ([1]; at 98% RH): strongly hygroscopic
Water uptake level ([1]; at 98% relative humidity): > 15 wt %
Water uptake upon adsorption ([1]; range 0-90% relative humidity): very small water uptake levels

CN1CCC(COc2cnc(-c3cccc(Cn4nc(-c5cccc(C#N)c5)ccc4=O)c3)nc2)CC1.Cl.O [crystalline modification H1, 3-(1-{3-[5-(1-methyl-piperidin-4-ylmethoxy)-pyrimidin-2-yl]-benzyl}-6-oxo-1,6-dihydro-pyridazin-3-yl)-benzonitrile hydrochloride hydrate]
Water uptake level ([1]; at 80% RH): > 15 wt %
Hygroscopic behaviour ([1]; relative humidity levels >70%): strongly hygroscopic
Kinetic Solubility (after 60 minutes) ([2]; hydrochloride hydrate): approx. 3 μg/mL
Solubility compared to crystalline modification H2 ([2]; kinetic solubility): significantly increased solubility

CN1CCC(COc2cnc(-c3cccc(Cn4nc(-c5cccc(C#N)c5)ccc4=O)c3)nc2)CC1.Cl.O [crystalline modification H2, 3-(1-{3-[5-(1-methyl-piperidin-4-ylmethoxy)-pyrimidin-2-yl]-benzyl}-6-oxo-1,6-dihydro-pyridazin-3-yl)-benzonitrile hydrochloride monohydrate]
Behaviour of hydrate water under dry RH conditions ([1]; hydrochloride monohydrate): no loss of hydrate water
Hygroscopicity classification acc. to Ph. Eur. criteria ([1]; hydrochloride monohydrate): non-hygroscopic
Water uptake ([1]; up to 98% relative humidity (RH range 0-98%), hydrochloride monohydrate): small water uptake levels; also recorded: very small water uptake levels
Thermodynamic Solubility ([3]; hydrochloride monohydrate): approx. 28 μg/mL
Thermodynamic stability compared to other hydrate forms H1 and NF3 [4]: thermodynamically stable hydrate form
solubility [5]: ~20 µg/mL
Kinetic Solubility (after 60 minutes) ([2]; hydrochloride monohydrate): approx. 0.3 μg/mL

CN1CCC(COc2cnc(-c3cccc(Cn4nc(-c5cccc(C#N)c5)ccc4=O)c3)nc2)CC1.Cl.O [crystalline modification NF2, 3-(1-{3-[5-(1-methyl-piperidin-4-ylmethoxy)-pyrimidin-2-yl]-benzyl}-6-oxo-1,6-dihydro-pyridazin-3-yl)-benzonitrile hydrochloride hydrate]
Weight loss in water vapor sorption ([1]; initial 40% RH sorption stage): ~10 wt %

CN1CCC(COc2cnc(-c3cccc(Cn4nc(-c5cccc(C#N)c5)ccc4=O)c3)nc2)CC1.Cl.O [crystalline modification NF3, 3-(1-{3-[5-(1-methyl-piperidin-4-ylmethoxy)-pyrimidin-2-yl]-benzyl}-6-oxo-1,6-dihydro-pyridazin-3-yl)-benzonitrile hydrochloride hydrate]
Water uptake level ([1]; at 98% relative humidity): approx. 9 wt %
Behaviour of hydrate water under dry RH conditions ([1]; hydrochloride hydrate): dehydration of hydrate water occurs
Hygroscopicity classification acc. to Ph. Eur. criteria ([1]; hydrochloride hydrate): slightly-hygroscopic
Thermodynamic Solubility ([3]; hydrochloride hydrate): approx. 70 μg/mL
Solubility compared to crystalline modification H2 ([3]; thermodynamic solubility): significantly increased solubility

CN1CCC(COc2cnc(-c3cccc(Cn4nc(-c5cccc(C#N)c5)ccc4=O)c3)nc2)CC1.Cl [crystalline modification NF6, 3-(1-{3-[5-(1-methyl-piperidin-4-ylmethoxy)-pyrimidin-2-yl]-benzyl}-6-oxo-1,6-dihydro-pyridazin-3-yl)-benzonitrile hydrochloride anhydrate]
Water uptake ([1]; 2nd adsorption cycle, up to 70% RH): approx. 8 wt %
Water uptake in initial sorption stage ([1]; initial sorption stage at 40% relative humidity): pronounced water uptake
Thermodynamic Solubility [6]: > 200 µg/mL
